According to patent US12545649B2, “WDR5-MYC inhibitors” (Vanderbilt University, priority 2019, dated 2026):

The compounds below were run against T1, WDR5 (Homo sapiens, UniProt P61964) (assay: Competition-based fluorescence polarization anisotropy (FPA) assay). Details: FITC small molecule probe.
Type: binding
Protocol: (Thomas, […], et al, Molecular Cell 2015 (58): 440-452). Fluorescence polarization measurements were performed in 384-well plates (Greiner Bio One) using a Cytation 3 plate reader (BioTek). […] […] The assay buffer contained 200 mM phosphate, 300 mM NaCl, and 0.5 mM TCEP and 0.1% Chaps at pH 6.0. Compounds were serially diluted in assay buffer at a top concentration sufficient to yield a 9-point dose-response curve.

| Ki [nM] | Compound |
| --- | --- |
| 1100 | O=S(=O)(Nc1cc(-c2ccccc2)[nH]n1)c1cc(Br)cc(Cl)c1O [Example 35, 5-Bromo-3-chloro-2-hydroxy-N-(5-phenyl-1H-pyrazol-3-yl)benzenesulfonamide] |
| 10300 | O=S(=O)(Nc1cn(C2CCNC2)cn1)c1cc(Br)cc(Cl)c1O (centres unmarked) [Example 31, 5-Bromo-3-chloro-2-hydroxy-N-(1-(pyrrolidin-3-yl)-1H-imidazol-4-yl)benzenesulfonamide] |
| 19200 | O=S(=O)(Nc1cn(CC2CCCO2)cn1)c1cc(Br)ccc1O (centres unmarked) [Example 16, 5-Bromo-2-hydroxy-N-(1-((tetrahydrofuran-2-yl)methyl)-1H-imidazol-4-yl)benzenesulfonamide] |
| 3900 | O=S(=O)(Nc1nc2ccc(OC(F)(F)F)cc2s1)c1cc(Br)cc(Cl)c1O [Example 40, 5-Bromo-3-chloro-2-hydroxy-N-(6-(trifluoromethoxy)benzo[d]thiazol-2-yl)benzenesulfonamide] |
| 160 | O=S(=O)(Nc1cn(C2CCCC2)cn1)c1cc(Br)cc(Cl)c1O [Example 1, 5-Bromo-3-chloro-N-(1-cyclopentyl-1H-imidazol-4-yl)-2-hydroxybenzenesulfonamide] |

Second part, the compound before the results:

| Compound | Ki [nM] |
| --- | --- |
| Cc1nc(NS(=O)(=O)c2cc(Br)cc(Cl)c2O)cn1C1CCC1 [Example 17, 5-Bromo-3-chloro-N-(1-cyclobutyl-2-methyl-1-imidazol-4-yl)-2-hydroxybenzenesulfonamide] | 660 |
| O=S(=O)(Nc1cn(CC2CC2)cn1)c1cc(Br)cc(Cl)c1O [Example 5, 5-Bromo-3-chloro-N-(1-(cyclopropylmethyl)-1H-imidazol-4-yl)-2-hydroxybenzenesulfonamide] | 820 |
| O=S(=O)(Nc1cn(CC2CCCO2)cn1)c1cc(Br)cc(Cl)c1O (centres unmarked) [Example 15, 5-Bromo-3-chloro-2-hydroxy-N-(1-((tetrahydrofuran-2-yl)methyl)-1H-imidazol-4-yl)benzenesulfonamide] | 4030 |
| O=S(=O)(Nc1cn(C(C2CC2)C2CC2)cn1)c1cc(Br)cc(Cl)c1O [Example 18, 5-Bromo-3-chloro-N-(1-(dicyclopropylmethyl)-1-imidazol-4-yl)-2-hydroxybenzenesulfonamide] | 970 |
| O=S(=O)(Nc1nc2ccccc2s1)c1cc(Br)cc(Cl)c1O [Example 37, N-(Benzo[d]thiazol-2-yl)-5-bromo-3-chloro-2-hydroxybenzenesulfonamide] | 120 |
| O=C(c1nc(NS(=O)(=O)c2cc(Br)cc(Cl)c2O)cn1C1CCCC1)N1CCC(C2CCNC2)CC1 (centres unmarked) [Example 54, 5-Bromo-3-chloro-N-(1-cyclopentyl-2-(4-(pyrrolidin-3-yl)piperidine-1-carbonyl)-1H-imidazol-4-yl)-2-hydroxybenzenesulfonamide] | 990 |

What follows are compounds tested on MYC (assay: ChIP: disruption of binding of MYC to chromatin). Details: HEK293 cells expressing HA-tagged MYC, 20 μM, 10 h.
Type: cell-based
Protocol: (§1) HEK293 cells expressing HA-tagged MYC and GFP were plated in growth media. Upon reaching approximately 70% confluence, cells were washed once with PBS then treated for 10 h with 20 μM compound in OptiMEM media. Cells were cross linked at room temperature in PBS containing 1% Formaldehyde for 10 minutes, then cells were scraped into 1.5 mL PBS supplemented with 125 mM Glycine. Cells were collected by centrifugation, washed once with PBS+125 mM Glycine, and pellets stored frozen. Chromatin was prepared by lysing cells at 80×10^6 per mL in ChIP Lysis Buffer (50 mM Tris pH 8.0, 140 mM NaCl, 1 mM EDTA, 1% Triton, 1% SDS and supplemented with protease inhibitor cocktail), Samples were sonicated (BioRuptor) for 30 minutes and cleared by centrifugation. Precipitation was performed essentially as described [Thomas L R 2015 Mol Cell] by diluting chromatin 1:9 in ChIP buffer without SDS. Decrosslinked DNA was diluted to 500 μL with water and 7.5 μL was used for each qPCR reaction. Percent input was calculated by comparison to a 30-fold dilution of decrosslinked chromatin. Primers used for ChIP have been described in Thomas, L. R.; Adams, C. M.; Wang, J.; Weissmiller, A. M.; Creighton, J.; Lorey, S. L.; Liu, Q.; Fesik, S. W.; Eischen, C. M.; Tansey, W. P. Interaction of the Oncoprotein Transcription Factor MYC with its Chromatin Cofactor WDR5 is Essential for Tumor Maintenance. […]

| amount of MYC at ZFPM1 and ZMF771 (MYC binding independent of WDR5) | amount of MYC at loci where MYC recruitment is dependent on WDR5 (C7orf40, RNPS1, RPS14, and RPL5) | Compound |
| --- | --- | --- |
| nearly unaffected | reduction | CS(=O)(=O)c1nc(NS(=O)(=O)c2cc(Br)cc(Cl)c2O)cn1C1CCCC1 [Example 26, 5-Bromo-3-chloro-N-(1-cyclopentyl-2-(methylsulfonyl)-1H-imidazol-4-yl)-2-hydroxybenzenesulfonamide] |

The compounds below were run against T1, WDR5 (assay: ChIP for WDR5 binding to chromatin). Details: HEK293 cells, 20 μM, 10 h.
Type: cell-based
Protocol: as §1

| WDR5 levels at these loci (ChIP for WDR5) versus negative control compound | Compound |
| --- | --- |
| comparable levels | CS(=O)(=O)c1nc(NS(=O)(=O)c2cc(Br)cc(Cl)c2O)cn1C1CCCC1 [Example 26, 5-Bromo-3-chloro-N-(1-cyclopentyl-2-(methylsulfonyl)-1H-imidazol-4-yl)-2-hydroxybenzenesulfonamide] |
